Columns and labels:
Type in all cases: cell-based
[1] = tested on: T-Rex 293 cells lacking increased expression of estrogen receptor alpha protein; experiment: Cellular growth inhibition assay, T-Rex 293 cells, (−) doxycycline; conditions: T-REx-293, 72 h, Table 7-A; T-Rex 293 cells without doxycycline (lacking increased ERα expression); 72 hours; CellTiter-Glo; read-out: (−) Dox GI50
In short: (§1)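 Viability read-out was CellTiter-Glo 2.0 luminescence after 72 h compound exposure, normalized to zero luminescence and fitted by four-parameter regression to give GI50. Cells were an ERα-inducible T-Rex 293 clone cultured with or without 3 ng/mL doxycycline in charcoal-stripped, phenol red-free medium.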

[2] = tested on: MCF7 cells (ATCC #HTB-22); experiment: Cellular growth inhibition assay, MCF7 cells purchased from ATCC; conditions: Homo sapiens, MCF7, 144 h, Table 8-A; MCF7 cells purchased from ATCC; six days; CellTiter-Glo; read-out: GI50
In short: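 MCF7 cells in RPMI 1640 with 10% FBS and 0.2 U/ml insulin, seeded at 1,500 cells/well (ATCC) or 225 cells/well (ECACC). Compounds added 24 h later, then 6 days at 37° C. Viability by CellTiter-Glo 2.0 luminescence. GI50 from four-parameter fit.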

[3] = tested on: T-Rex 293 cells having increased expression of estrogen receptor alpha protein; experiment: Cellular growth inhibition assay, T-Rex 293 cells, (+) doxycycline; conditions: T-REx-293, 72 h, Table 7-A; T-Rex 293 cells with doxycycline (increased ERα expression); 72 hours; CellTiter-Glo; read-out: (+) Dox GI50
In short: as §1

Compound | GI50 [1] | GI50 [2] | GI50 [3]
Cc1cc([C@H]2c3ccc(O)cc3CC[C@H]2c2ccc(F)cc2)ccc1N1CCN(CC2(O)CCN(c3ccc(C4=N[C@@H](C)c5nnc(C)n5-c5sc(C)c(C)c54)cc3)CC2)CC1 [III-283] | 500 to 2500 nM | 50 to 500 nM | 50 to 500 nM
Cc1cc([C@@H]2c3ccc(O)cc3CC[C@@H]2c2ccc(F)cc2)ccc1N1CCN(CC2(O)CCN(c3ccc(C4=N[C@@H](C)c5nnc(C)n5-c5sc(C)c(C)c54)cc3)CC2)CC1 [III-284] | 500 to 2500 nM | 50 to 500 nM | 50 to 500 nM
Cc1cc(N2CCN(CC3(O)CCN(c4ccc(C5=N[C@@H](C)c6nnc(C)n6-c6sc(C)c(C)c65)cc4)CC3)CC2)c(F)cc1[C@H]1c2ccc(O)cc2CC[C@H]1c1ccccc1 [III-285] | 50 to 500 nM | 50 to 500 nM | 50 to 500 nM
Cc1cc(N2CCN(CC3(O)CCN(c4ccc(C5=N[C@@H](C)c6nnc(C)n6-c6sc(C)c(C)c65)cc4)CC3)CC2)c(F)cc1[C@@H]1c2ccc(O)cc2CC[C@@H]1c1ccccc1 [III-286] | 500 to 2500 nM | < 50 nM | < 50 nM
Cc1cc([C@@H]2c3ccc(O)cc3CC[C@@H]2c2ccccc2)c(F)cc1N1CCN(CC2(O)CCN(c3ccc(C4=N[C@@H](C)c5nnc(C)n5-c5sc(C)c(C)c54)cc3)CC2)CC1 [III-287] | 500 to 2500 nM | 50 to 500 nM | < 50 nM
Cc1cc([C@H]2c3ccc(O)cc3CC[C@H]2c2ccccc2)c(F)cc1N1CCN(CC2(O)CCN(c3ccc(C4=N[C@@H](C)c5nnc(C)n5-c5sc(C)c(C)c54)cc3)CC2)CC1 [III-288] | 500 to 2500 nM | 50 to 500 nM | 50 to 500 nM
Cc1sc2c(c1C)C(c1ccc(N3CCC(O)(CN4CCN(c5ccc([C@@H]6c7ccc(O)cc7CC[C@@H]6c6cccc(F)c6)c(F)c5)CC4)CC3)cc1)=N[C@@H](C)c1nnc(C)n1-2 [III-289] | 500 to 2500 nM | < 50 nM | < 50 nM
Cc1sc2c(c1C)C(c1ccc(N3CCC(O)(CN4CCN(c5ccc([C@H]6c7ccc(O)cc7CC[C@H]6c6cccc(F)c6)c(F)c5)CC4)CC3)cc1)=N[C@@H](C)c1nnc(C)n1-2 [III-290] | 50 to 500 nM | 50 to 500 nM | < 50 nM
Cc1sc2c(c1C)C(c1ccc(N3CCC(O)(CN4CCN(c5ccc([C@@H]6c7ccc(O)cc7CC[C@@H]6c6ccccc6F)c(F)c5)CC4)CC3)cc1)=N[C@@H](C)c1nnc(C)n1-2 [III-291] | 500 to 2500 nM | < 50 nM | < 50 nM
Cc1sc2c(c1C)C(c1ccc(N3CCC(O)(CN4CCN(c5ccc([C@H]6c7ccc(O)cc7CC[C@H]6c6ccccc6F)c(F)c5)CC4)CC3)cc1)=N[C@@H](C)c1nnc(C)n1-2 [III-292] | 50 to 500 nM | 50 to 500 nM | 50 to 500 nM
Cc1sc2c(c1C)C(c1ccc(N3CCC(O)(CN4CCN(c5ccc([C@@H]6c7ccc(O)cc7CC[C@@H]6c6c(F)cccc6F)c(F)c5)CC4)CC3)cc1)=N[C@@H](C)c1nnc(C)n1-2 [III-293] | 500 to 2500 nM | < 50 nM | < 50 nM
Cc1sc2c(c1C)C(c1ccc(N3CCC(O)(CN4CCN(c5ccc([C@H]6c7ccc(O)cc7CC[C@H]6c6c(F)cccc6F)c(F)c5)CC4)CC3)cc1)=N[C@@H](C)c1nnc(C)n1-2 [III-294] | 50 to 500 nM | 50 to 500 nM | 50 to 500 nM
Cc1sc2c(c1C)C(c1ccc(N3CC4(CC(CN5CCN(c6cc(F)c([C@H]7c8ccc(O)cc8CC[C@H]7c7ccc(F)cc7)c(F)c6)CC5)C4)C3)cc1)=N[C@@H](C)c1nnc(C)n1-2 [III-295] | 500 to 2500 nM | 50 to 500 nM | 500 to 2500 nM
Cc1sc2c(c1C)C(c1ccc(N3CC4(CC(CN5CCN(c6cc(F)c([C@@H]7c8ccc(O)cc8CC[C@@H]7c7ccc(F)cc7)c(F)c6)CC5)C4)C3)cc1)=N[C@@H](C)c1nnc(C)n1-2 [III-296] | 500 to 2500 nM | 50 to 500 nM | 50 to 500 nM
Cc1cc(N2CCN(CC3(O)CCN(c4ccc(C5=N[C@@H](C)c6nnc(C)n6-c6sc(C)c(C)c65)cc4)CC3)CC2)ccc1[C@H]1c2ccc(O)cc2CC[C@H]1c1ccc(F)cc1 [III-297] | 50 to 500 nM | 50 to 500 nM | 50 to 500 nM
Cc1cc(N2CCN(CC3(O)CCN(c4ccc(C5=N[C@@H](C)c6nnc(C)n6-c6sc(C)c(C)c65)cc4)CC3)CC2)ccc1[C@@H]1c2ccc(O)cc2CC[C@@H]1c1ccc(F)cc1 [III-298] | 50 to 500 nM | 50 to 500 nM | 50 to 500 nM
Cc1sc2c(c1C)C(c1ccc(N3CCC(O)(CN4CCN(c5cc(F)c([C@@H]6c7ccc(O)cc7CC[C@@H]6c6ccccc6)cc5F)CC4)CC3)cc1)=N[C@@H](Cc1ncco1)c1nnc(C)n1-2 [III-299] | 50 to 500 nM | < 50 nM | < 50 nM
